Laboratory results as given in ChEMBL document CHEMBL1671792, “Conformationally constrained farnesoid X receptor (FXR) agonists: heteroaryl replacements of the naphthalene” (Bioorg Med Chem Lett, 2011).
Converted amounts (≈) assume the structure as drawn. The source made the active and inactive calls. The rule behind the calls is not given here.

How the values were obtained:
[1] = biological target: T1, Bile acid receptor (Homo sapiens, UniProt Q96RI1); test: Agonist activity at human FXR LBD assessed as SRC1 peptide recruitment by FRET assay; type: functional
T1 sequence (Q96RI1 whole entry): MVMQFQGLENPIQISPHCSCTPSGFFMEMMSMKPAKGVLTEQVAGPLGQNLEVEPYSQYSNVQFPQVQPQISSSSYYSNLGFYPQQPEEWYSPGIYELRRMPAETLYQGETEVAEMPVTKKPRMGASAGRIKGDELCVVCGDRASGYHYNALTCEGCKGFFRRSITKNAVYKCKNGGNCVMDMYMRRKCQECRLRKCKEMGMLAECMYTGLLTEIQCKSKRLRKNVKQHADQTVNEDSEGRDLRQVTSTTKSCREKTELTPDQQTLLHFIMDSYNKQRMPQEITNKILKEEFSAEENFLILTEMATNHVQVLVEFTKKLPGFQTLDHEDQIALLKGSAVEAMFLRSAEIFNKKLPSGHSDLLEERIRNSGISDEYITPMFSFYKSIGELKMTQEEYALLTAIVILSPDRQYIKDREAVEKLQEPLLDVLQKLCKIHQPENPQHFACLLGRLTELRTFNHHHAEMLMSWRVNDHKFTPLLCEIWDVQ

[2] = biological target: T1, Bile acid receptor; test: Agonist activity at human FXR LBD iexpressed in monkey CV-1 cells assessed as transactivation of luciferase reporter gene expression; type: functional, cell-based
[3] = biological target: T2, Bile acid receptor (Homo sapiens) (UniProt Q96RI1); test: Agonist activity at human FXR LBD iexpressed in monkey CV-1 cells assessed as transactivation of luciferase reporter gene expression relative to GW 4064; type: functional, cell-based; set-up: concentration or dose not given beside the values
T2 sequence (whole entry): T1 sequence (Q96RI1 whole entry)

[4] = biological target: T2, Bile acid receptor (Homo sapiens); test: Agonist activity at human FXR LBD assessed as SRC1 peptide recruitment by FRET assay relative to GW 4064; type: functional
[5] = species on record: Homo sapiens; test: Selectivity ratio of EC50 for human FXR to EC50 for human PPARalpha
[6] = biological target: T2, Bile acid receptor (Homo sapiens); test: Binding affinity to human FXR by X-ray crystallography
[7] = species on record: Homo sapiens; test: Selectivity ratio of EC50 for human FXR to EC50 for human PPARdelta
[8] = species on record: Homo sapiens; test: Selectivity ratio of EC50 for human FXR to EC50 for human PPARgamma
[9] = species on record: Homo sapiens; test: Selectivity ratio of EC50 for human FXR to EC50 for human LRH
[10] = system: Rattus norvegicus; test: Dose normalized AUC in orally dosed rat; type: ADME, organism-based; settings: in vivo, po
[11] = species on record: Homo sapiens; test: Selectivity ratio of EC50 for human FXR to EC50 for human LXRbeta
[12] = species on record: Homo sapiens; test: Selectivity ratio of EC50 for human FXR to EC50 for human PXR
[13] = system: Cynomolgus monkey; test: Dose normalized AUC in orally dosed cynomolgus monkey; type: ADME, organism-based, Macaca fascicularis; settings: in vivo, po
[14] = Solubility of compound in fasted state-simulated intestinal fluid at pH 6.5; type: physicochemical; settings: simulated gi fluid
[15] = species on record: Homo sapiens; test: Selectivity ratio of EC50 for human FXR to EC50 for human RORalpha
[16] = species on record: Homo sapiens; test: Selectivity ratio of EC50 for human FXR to EC50 for human LXRalpha
[17] = species on record: Homo sapiens; test: Selectivity ratio of EC50 for human FXR to EC50 for human RXRalpha
[18] = Oral bioavailability in rat; type: ADME, organism-based; settings: in vivo
[19] = Volume of distribution at steady state in iv dosed mouse; type: ADME, organism-based; settings: in vivo, read-out: Vdss
[20] = system: Canis familiaris; test: Dose normalized AUC in orally dosed Beagle dog; type: ADME, organism-based, Canis lupus familiaris; settings: in vivo, po
[21] = Half life in iv dosed cynomolgus monkey; type: ADME, organism-based, Macaca fascicularis; settings: in vivo
[22] = Oral bioavailability in cynomolgus monkey; type: ADME, organism-based, Macaca fascicularis; settings: in vivo
[23] = Oral bioavailability in Beagle dog; type: ADME, organism-based, Canis lupus familiaris; settings: in vivo
[24] = system: Mus musculus; test: Dose normalized AUC in orally dosed mouse; type: ADME, organism-based; settings: in vivo, po
[25] = Half life in iv dosed rat; type: ADME, organism-based; settings: in vivo
[26] = Clearance in iv dosed rat; type: ADME, organism-based; settings: in vivo
[27] = Clearance in iv dosed mouse; type: ADME, organism-based; settings: in vivo
[28] = Volume of distribution at steady state in iv dosed cynomolgus monkey; type: ADME, organism-based, Macaca fascicularis; settings: in vivo, read-out: Vdss
[29] = Volume of distribution at steady state in iv dosed Beagle dog; type: ADME, organism-based, Canis lupus familiaris; settings: in vivo, read-out: Vdss
[30] = Half life in iv dosed mouse; type: ADME, organism-based; settings: in vivo
[31] = Clearance in iv dosed Beagle dog; type: ADME, organism-based, Canis lupus familiaris; settings: in vivo
[32] = Half life in iv dosed Beagle dog; type: ADME, organism-based, Canis lupus familiaris; settings: in vivo
[33] = Clearance in iv dosed cynomolgus monkey; type: ADME, organism-based, Macaca fascicularis; settings: in vivo
[34] = Volume of distribution at steady state in iv dosed rat; type: ADME, organism-based; settings: in vivo, read-out: Vdss
[35] = Oral bioavailability in mouse; type: ADME, organism-based; settings: in vivo

For `CC(C)c1onc(-c2c(Cl)cccc2Cl)c1COc1ccc(-c2ccc3cc(C(=O)O)cnc3c2)cc1`, the EC50 [1] was 200 nM, the EC50 [2] was 260 nM and the Activity [3] was 88%. It also gave an Activity [4] of 87%.
In the case of `Cc1cc(-c2ccc3nc(C(=O)O)ccc3c2)ccc1OCc1c(-c2c(Cl)cccc2Cl)noc1C(C)C`, the EC50 [1] is reported as 110 nM, the EC50 [2] is reported as 44 nM and the Activity [3] is reported as 94%. It also gave an Activity [4] of 100%.
Work on `CC(C)c1onc(-c2c(Cl)cccc2Cl)c1COc1ccc(-c2ccc3nc(C(=O)O)cnc3c2)cc1` yielded an EC50 [1] of 150 nM, an EC50 [2] of 690 nM and an Activity [3] of 109%. It also gave an Activity [4] of 96%.
In the case of `CC(C)Oc1cc(C(=O)O)nc2ccc(-c3ccc(OCc4c(-c5c(Cl)cccc5Cl)noc4C(C)C)cc3)cc12`, the EC50 [1] is reported as 40 nM, the EC50 [2] is reported as 14 nM and the Activity [3] is reported as 103%. It also gave an Activity [4] of 113%.
For `CC(C)c1onc(-c2c(Cl)cccc2Cl)c1COc1ccc(-c2ccc3c(C(=O)O)cccc3c2)cc1`, the Ratio EC50 [5] was 100, the Activity [6] was “Active” and the Ratio EC50 [7] was 100. It also gave a Ratio EC50 [8] of 100, a Ratio EC50 [9] of 100 and an AUC [10] of 23 ng·kg·h/mg/mL. For the same compound, the Ratio EC50 [11] was 100, the Ratio EC50 [12] was 100 and the AUC [13] was 1130 ng·kg·h/mg/mL. It also gave a solubility [14] of 1 ng/mL (≈ 1.88 nM), a Ratio EC50 [15] of 100 and an Activity [3] of 104%. The Activity [4] was 134%, the Ratio EC50 [16] was 100 and the Ratio EC50 [17] was 100.
`CC(C)c1onc(-c2c(Cl)cccc2Cl)c1COc1ccc(-c2ccc3c(C(=O)O)nccc3c2)cc1` gave an EC50 [1] of 380 nM, an EC50 [2] of 190 nM and an Activity [3] of 102%. It also gave an Activity [4] of 92%.
With `CC(C)c1onc(-c2c(Cl)cccc2Cl)c1COc1ccc(-c2ccc3cc(C(=O)O)ncc3c2)cc1` the EC50 [1] was 120 nM, the EC50 [2] was 77 nM and the Activity [6] was “Active”. It also gave a bioavailability [18] of 30%, a Vd [19] of 5.1 L/kg and an AUC [20] of 320 ng·kg·h/mg/mL. It also gave a half-life [21] of 620 min, a bioavailability [22] of 2.5% and a bioavailability [23] of 15%. The AUC [24] was 36 ng·kg·h/mg/mL, the half-life [25] was 88 min and the clearance [26] was 18 mL/min/kg. The clearance [27] was 29 mL/min/kg, the Vd [28] was 3.1 L/kg and the AUC [10] was 300 ng·kg·h/mg/mL. For the same compound, the Vd [29] was 2 L/kg, the half-life [30] was 250 min and the clearance [31] was 8.2 mL/min/kg. The AUC [13] was 40 ng·kg·h/mg/mL, the half-life [32] was 230 min and the Activity [3] was 86%. For the same compound, the Activity [4] was 83%, the clearance [33] was 11 mL/min/kg and the Vd [34] was 1.8 L/kg. It also gave a bioavailability [35] of 6.3%.
For `CC(C)COc1cc(C(=O)O)nc2ccc(-c3ccc(OCc4c(-c5c(Cl)cccc5Cl)noc4C(C)C)cc3)cc12`, the EC50 [1] was 78 nM, the EC50 [2] was 81 nM and the Activity [3] was 93%. The Activity [4] was 105%.
`Cc1nc(C(=O)O)nc2ccc(-c3ccc(OCc4c(-c5c(Cl)cccc5Cl)noc4C(C)C)cc3)cc12` gave an EC50 [1] of 140 nM, an EC50 [2] of 1000 nM and an Activity [3] of 127%. For the same compound, the Activity [4] was 102%.
With `CC(C)c1onc(-c2c(Cl)cccc2Cl)c1COc1ccc(-c2cc3ccc(C(=O)O)nc3cc2F)cc1` the EC50 [1] was 240 nM, the EC50 [2] was 110 nM and the Activity [3] was 107%. For the same compound, the Activity [4] was 115%.
For `Cc1cc(OCc2c(-c3c(Cl)cccc3Cl)noc2C(C)C)ccc1-c1ccc2nc(C(=O)O)ccc2c1`, the EC50 [1] was 250 nM, the EC50 [2] was 52 nM and the Activity [3] was 91%. It also gave an Activity [4] of 87%.
For `CCCOc1cc(C(=O)O)nc2ccc(-c3ccc(OCc4c(-c5c(Cl)cccc5Cl)noc4C(C)C)cc3)cc12`, the EC50 [1] was 59 nM, the EC50 [2] was 22 nM and the Activity [3] was 93%. For the same compound, the Activity [4] was 113%.
With `Cc1cc(C(=O)O)nc2ccc(-c3ccc(OCc4c(-c5c(Cl)cccc5Cl)noc4C(C)C)cc3)cc12` the EC50 [1] was 81 nM, the EC50 [2] was 24 nM and the Activity [3] was 107%. It also gave an Activity [4] of 108%.
Compound `CC(C)c1onc(-c2c(Cl)cccc2Cl)c1COc1ccc(-c2ccc3c(C(=O)O)ccnc3c2)cc1` has an EC50 [1] of 340 nM, an EC50 [2] of 560 nM and an Activity [3] of 85%. It also gave an Activity [4] of 99%.
`CCc1cc(C(=O)O)nc2ccc(-c3ccc(OCc4c(-c5c(Cl)cccc5Cl)noc4C(C)C)cc3)cc12` gave an EC50 [1] of 75 nM, an EC50 [2] of 32 nM and an Activity [3] of 109%. It also gave an Activity [4] of 106%.
Work on `COc1cc(C(=O)O)nc2ccc(-c3ccc(OCc4c(-c5c(Cl)cccc5Cl)noc4C(C)C)cc3)cc12` yielded an EC50 [1] of 58 nM, an EC50 [2] of 17 nM and an Activity [3] of 107%. For the same compound, the Activity [4] was 113%.
With `CC(C)c1onc(-c2c(Cl)cccc2Cl)c1COc1ccc(-c2ccc3nc(C(=O)O)cc(O)c3c2)cc1` the EC50 [1] was 51 nM, the EC50 [2] was over 10000 nM and the Activity [4] was 91%.
In the case of `CC(C)c1onc(-c2c(Cl)cccc2Cl)c1COc1ccc(-c2ccc3nc(C(=O)O)nnc3c2)cc1`, the EC50 [1] is reported as 360 nM, the EC50 [2] is reported as over 10000 nM and the Activity [4] is reported as 100%.
In the case of `Cc1cc2cc(-c3ccc(OCc4c(-c5c(Cl)cccc5Cl)noc4C(C)C)cc3)ccc2nc1C(=O)O`, the EC50 [1] is reported as 140 nM, the EC50 [2] is reported as 38 nM and the Activity [3] is reported as 101%. The Activity [4] was 107%.
For `CC(C)c1onc(-c2c(Cl)cccc2Cl)c1COc1ccc(/C=C/c2cccc(C(=O)O)c2)c(Cl)c1`, the Activity [6] was “Active”.
Work on `CCOc1cc(C(=O)O)nc2ccc(-c3ccc(OCc4c(-c5c(Cl)cccc5Cl)noc4C(C)C)cc3)cc12` yielded an EC50 [1] of 52 nM, an EC50 [2] of 14 nM and an Activity [3] of 84%. The Activity [4] was 99%.
